This is an account of results in patent US11607454B2, “Devices and processes for Cherenkov-activated nuclear-targeted photodynamic therapy” (UNIVERSITY HEALTH NETWORK, priority 2016, dated 2023).

Assay [1] concerns Pancreatic cells (BxPC-3). The assay can be described thus: phospho-gamma H2AX immunofluorescence assay of DNA damage after 18 MV X-ray irradiation generating Cherenkov light. To be noted: BxPC-3 cells, 4 micrograms per ml, 6 h incubation, 10 Gy X-ray, read 30 minutes after irradiation, +/- 1 standard deviation. Type of assay: cell-based. How it is done: Following preparation of the nuclear-targeted copolymer-photosensitizer micelles (NPs) as above, tests were carried out of the effect on pancreatic cancer cells in tissue culture (in vitro) of X-ray irradiation under conditions that generate Cherenkov light. Pancreatic cells (BxPC-3: ATCC, VA, USA) were selected since treatment of pancreatic cancer is one example of how the current invention might be applied to address an unmet clinical need for a minimally invasive therapy for this highly fatal disease where conventional treatments such as radiation or chemotherapy are inadequate.
Cells were incubated with NPs with water as the vehicle. […]
At 30 minutes after irradiation, the damage to DNA in the cells was measured using phospho-gamma H2AX immunofluorescence assay, similar to that used for example by Fraser et al. (2012). […] The fluorescence was imaged on a confocal fluorescence microscope where the red fluorescence (488+/−10 nm excitation, >505 nm detection) corresponding to DNA double strand breaks could be visualized on the […] DAPI fluorescence background (405+/−10 nm excitation, 460+/−25 nm detection) and the intensity quantified. The red fluorescence intensity counts were integrated over 10-18 cells for each treatment condition. […]

For another assay, the system named is cells in vitro. The note with it: conjugation to branched peptides (loligomers) with nuclear-targeting sequences; cited from earlier work.

For the molecule `C1=Cc2nc1c(-c1ccccc1)c1nc(c(-c3ccccc3)c3ccc([nH]3)c(-c3ccccc3)c3ccc([nH]3)c2-c2ccccc2)C=C1` [TPP, tetraphenyl porphyrin], the “Mean fluorescence intensity counts” value in assay [1] (Cherenkov blocked (blackout material)) is given as 54.8 +/− 6.0 counts; in assay [1] (Cherenkov unblocked) it was 49.5 +/− 6.7 counts.
Consider chlorine 6, for which the “reduction of the required dose of photosensitizer by nuclear localization” value with cells in vitro was “greater than 100 fold”.
